Results taken from patent US12077503B2, “Substituted cyclic amides and their use as herbicides” (FMC CORPORATION, priority 2015, dated 2024).

Experiments:
Assay type in all cases: in vivo
[1] = system: sedge, umbrella (small-flower umbrella sedge, Cyperus difformis); experiment: Test B flooded paddy test; conditions: Flood, 250 g ai/ha; for Sedge, Umbrella plant response rating: scale of 0 to 100 where 0 is no effect and 100 is complete control
How it was run: (§1)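 Response scored visually against untreated controls, 0 = no effect and 100 = complete control, 13–15 d after treatment in the greenhouse. Compounds added to paddy water held 3 cm above soil surface. Treatment given at 2-leaf stage.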

[2] = system: barnyardgrass (Echinochloa crus-galli); experiment: Test B flooded paddy test; conditions: Flood, 250 g ai/ha; 0 to 100 scale where 0 is no effect and 100 is complete control; 13 to 15 d
How it was run: as §1

[3] = system: ducksalad (Heteranthera limosa); experiment: Test B flooded paddy test; conditions: Flood, 250 g ai/ha; 0 to 100 scale where 0 is no effect and 100 is complete control; 13 to 15 d
How it was run: as §1

[4] = system: rice (Oryra sativa); experiment: Test B flooded paddy test; conditions: Flood, 250 g ai/ha; 0 to 100 scale where 0 is no effect and 100 is complete control; 13 to 15 d
How it was run: as §1

[5] = system: barnyardgrass (Echinochloa crus-galli); experiment: Test A preemergence; conditions: for Plant response rating, Barnyardgrass: preemergence
How it was run: (§2)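 Treatment is preemergence as a directed soil spray after planting, or postemergence at the one- to two-leaf stage, with test chemical in a non-phytotoxic solvent mixture plus surfactant. Plants stay in the greenhouse about 10 d before visual injury scoring on a 0 to 100 scale versus untreated controls.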

[6] = system: morningglory (Ipomoea spp.); experiment: Test A preemergence; conditions: for Plant response rating, Morningglory: preemergence
How it was run: as §2

[7] = system: corn (Zea mays); experiment: Test A preemergence; conditions: for Plant response rating, Corn: preemergence
How it was run: as §2

[8] = system: giant foxtail (Setaria faberii); experiment: Test A preemergence; conditions: for Plant response rating, Foxtail, Giant: preemergence
How it was run: as §2

[9] = system: crabgrass, large (Digitaria sanguinalis); experiment: Test A preemergence; conditions: for Plant response rating, Crabgrass, Large: preemergence
How it was run: as §2

[10] = system: pigweed (Amaranthus retroflexus); experiment: Test A preemergence; conditions: for Plant response rating, Pigweed: preemergence
[11] = system: wheat (Triticum aestivum); experiment: Test A preemergence; conditions: for Plant response rating, Wheat: preemergence
How it was run: as §2

[12] = system: velvetleaf (Abutilon theophrasti); experiment: Test A preemergence; conditions: for Plant response rating, Velvetleaf: preemergence
How it was run: as §2

[13] = system: barnyardgrass (Echinochloa crus-galli); experiment: Test A postemergence
How it was run: as §2

[14] = system: morningglory (Ipomoea spp.); experiment: Test A postemergence
How it was run: as §2

[15] = system: corn (Zea mays); experiment: Test A postemergence
How it was run: as §2

[16] = system: giant foxtail (Setaria faberii); experiment: Test A postemergence
How it was run: as §2

[17] = system: crabgrass, large (Digitaria sanguinalis); experiment: Test A postemergence
How it was run: as §2

[18] = system: pigweed (Amaranthus retroflexus); experiment: Test A postemergence
How it was run: as §2

[19] = system: wheat (Triticum aestivum); experiment: Test A postemergence
How it was run: as §2

[20] = system: velvetleaf (Abutilon theophrasti); experiment: Test A postemergence
How it was run: as §2

[21] = 125 g ai/ha, 0 to 100 scale (0 no effect, 100 complete control)
[22] = Preemergence, 500 g ai/ha, 0 is no effect, 100 is complete control
[23] = 500 g ai/ha, postemergence, 0 to 100 scale, 0 no effect, 100 complete control
[24] = Postemergence, 125 g ai/ha, visual injury, 0 to 100 scale (0 no effect, 100 complete control), approx. 10 d
[25] = 125 g ai/ha, visual rating after approx. 10 d, 0 to 100 scale where 0 is no effect and 100 is complete control
[26] = 500 g ai/ha, 0 to 100 scale, 0 = no effect, 100 = complete control
[27] = 125 g ai/ha, postemergence, visual injury after approximately 10 d, 0 to 100 scale (0 no effect, 100 complete control)
[28] = 500 g ai/ha, postemergence, visual injury, 0 to 100 scale (0 no effect, 100 complete control), approx. 10 d

## CN(C)c1cccc(C2CNC(=O)C2C(=O)Nc2ccccc2F)c1 (stereo not drawn) [Compound 360]
[1]; 0 to 100 scale where 0 is no effect and 100 is complete control, 13 to 15 d
  Plant response rating, Sedge, Umbrella: 0
[2]
  Plant response rating, Barnyardgrass: 0
[3]
  Plant response rating, Ducksalad: 0
[4]
  Plant response rating, Rice: 0
[5]; [21]
  Plant response rating, Barnyardgrass: 0
[5]; [22]
  Barnyardgrass plant response rating (0 to 100 scale): 0
[6]; [21]
  Plant response rating, Morningglory: 0
[6]; [22]
  Morningglory plant response rating (0 to 100 scale): 0
[7]; [21]
  Plant response rating, Corn: 0
[7]; [22]
  Corn plant response rating (0 to 100 scale): 0
[8]; [21]
  Plant response rating, Foxtail, Giant: 0
[8]; [22]
  Foxtail, Giant plant response rating (0 to 100 scale): 0
[9]; [21]
  Plant response rating, Crabgrass, Large: 0
[9]; [22]
  Crabgrass, Large plant response rating (0 to 100 scale): 0
[10]; [21]
  Plant response rating, Pigweed: 0
[10]; [22]
  Pigweed plant response rating (0 to 100 scale): 0
[11]; [21]
  Plant response rating, Wheat: 0
[11]; [22]
  Wheat plant response rating (0 to 100 scale): 0
[12]; [21]
  Plant response rating, Velvetleaf: 0
[12]; [22]
  Velvetleaf plant response rating (0 to 100 scale): 0
[13]; [23]
  Plant response rating, Barnyardgrass: 0
[13]; [24]
  Plant response rating, Barnyardgrass: 0
[14]; [23]
  Plant response rating, Morningglory: 0
[14]; [24]
  Plant response rating, Morningglory: 0
[15]; [23]
  Plant response rating, Corn: 0
[15]; [24]
  Plant response rating, Corn: 0
[16]; [23]
  Plant response rating, Foxtail, Giant: 0
[16]; [24]
  Plant response rating, Foxtail, Giant: 0
[17]; [23]
  Plant response rating, Crabgrass, Large: 0
[17]; [24]
  Plant response rating, Crabgrass, Large: 0
[18]; [23]
  Plant response rating, Pigweed: 0
[18]; [24]
  Plant response rating, Pigweed: 0
[19]; [23]
  Plant response rating, Wheat: 0
[19]; [24]
  Plant response rating, Wheat: 0
[20]; [23]
  Plant response rating, Velvetleaf: 0
[20]; [24]
  Plant response rating, Velvetleaf: 0

## O=C1NCC(c2cccc(O)c2)C1C(=O)Nc1cccc(F)c1F (racemic) [Compound 715]
[1]
  Sedge, Umbrella plant response rating: 0
[2]
  Plant response rating, Barnyardgrass: 0
[3]
  Plant response rating, Ducksalad: 0
[4]
  Plant response rating, Rice: 0
[5]; [25]
  Plant response rating, Barnyardgrass: 0
[5]; [26]
  Plant response rating, Barnyardgrass: 0
[6]; [25]
  Plant response rating, Morningglory: 0
[6]; [26]
  Plant response rating, Morningglory: 0
[7]; [25]
  Plant response rating, Corn: 0
[7]; [26]
  Plant response rating, Corn: 0
[8]; [25]
  Plant response rating, Foxtail, Giant: 0
[8]; [26]
  Plant response rating, Foxtail, Giant: 0
[9]; [25]
  Plant response rating, Crabgrass, Large: 0
[9]; [26]
  Plant response rating, Crabgrass, Large: 0
[10]; [25]
  Plant response rating, Pigweed: 0
[10]; [26]
  Plant response rating, Pigweed: 0
[11]; [25]
  Plant response rating, Wheat: 0
[11]; [26]
  Plant response rating, Wheat: 0
[12]; [25]
  Plant response rating, Velvetleaf: 0
[12]; [26]
  Plant response rating, Velvetleaf: 0
[13]; [27]
  Plant response rating, Barnyardgrass: 0
[13]; [28]
  Plant response rating, Barnyardgrass: 0
[14]; [27]
  Plant response rating, Morningglory: 0
[14]; [28]
  Plant response rating, Morningglory: 0
[15]; [27]
  Plant response rating, Corn: 0
[15]; [28]
  Plant response rating, Corn: 0
[16]; [27]
  Plant response rating, Foxtail, Giant: 0
[16]; [28]
  Plant response rating, Foxtail, Giant: 0
[17]; [27]
  Plant response rating, Crabgrass, Large: 0
[17]; [28]
  Plant response rating, Crabgrass, Large: 0
[18]; [27]
  Plant response rating, Pigweed: 0
[18]; [28]
  Plant response rating, Pigweed: 0
[19]; [27]
  Plant response rating, Wheat: 0
[19]; [28]
  Plant response rating, Wheat: 0
[20]; [27]
  Plant response rating, Velvetleaf: 0
[20]; [28]
  Plant response rating, Velvetleaf: 0

## O=C1NCC(c2cccc(O)c2)C1C(=O)Nc1ccccc1F (racemic) [Compound 714]
[1]
  Sedge, Umbrella plant response rating: 0
[2]
  Plant response rating, Barnyardgrass: 0
[3]
  Plant response rating, Ducksalad: 0
[4]
  Plant response rating, Rice: 0
[5]; [25]
  Plant response rating, Barnyardgrass: 0
[5]; [26]
  Plant response rating, Barnyardgrass: 0
[6]; [25]
  Plant response rating, Morningglory: 0
[6]; [26]
  Plant response rating, Morningglory: 0
[7]; [25]
  Plant response rating, Corn: 0
[7]; [26]
  Plant response rating, Corn: 0
[8]; [25]
  Plant response rating, Foxtail, Giant: 0
[8]; [26]
  Plant response rating, Foxtail, Giant: 20
[9]; [25]
  Plant response rating, Crabgrass, Large: 20
[9]; [26]
  Plant response rating, Crabgrass, Large: 30
[10]; [25]
  Plant response rating, Pigweed: 0
[10]; [26]
  Plant response rating, Pigweed: 0
[11]; [25]
  Plant response rating, Wheat: 0
[11]; [26]
  Plant response rating, Wheat: 0
[12]; [25]
  Plant response rating, Velvetleaf: 0
[12]; [26]
  Plant response rating, Velvetleaf: 0
[13]; [27]
  Plant response rating, Barnyardgrass: 0
[13]; [28]
  Plant response rating, Barnyardgrass: 0
[14]; [27]
  Plant response rating, Morningglory: 0
[14]; [28]
  Plant response rating, Morningglory: 0
[15]; [27]
  Plant response rating, Corn: 0
[15]; [28]
  Plant response rating, Corn: 0
[16]; [27]
  Plant response rating, Foxtail, Giant: 0
[16]; [28]
  Plant response rating, Foxtail, Giant: 0
[17]; [27]
  Plant response rating, Crabgrass, Large: 0
[17]; [28]
  Plant response rating, Crabgrass, Large: 0
[18]; [27]
  Plant response rating, Pigweed: 0
[18]; [28]
  Plant response rating, Pigweed: 0
[19]; [27]
  Plant response rating, Wheat: 0
[19]; [28]
  Plant response rating, Wheat: 0
[20]; [27]
  Plant response rating, Velvetleaf: 0
[20]; [28]
  Plant response rating, Velvetleaf: 0
